Earlier results on five molecules are cited in US20220218792A1, “COMPOSITIONS TO PROMOTE THE HEALING OF SKIN ULCERS AND WOUNDS” (priority 2014, published 2022).

Test in data set [1]: not given
The source holds these as a separate data set.

For data set [2] the following is noted: for gastric tolerability: oral.
For data set [3] the following is noted: aqueous media at physiological pH.
The test system of data set [4] is Peptostreptococcus (including Peptoniphilus, Finegoldia and Anaerococcus) and Fusobacterium. The note with it: anaerobic genera.
Data set [5] concerns indole-positive Proteus spp., Klebsiella and Enterobacter spp.
For data set [6], the system named is polymorphonuclear leukocytes.
The test system of data set [7] is strains of organisms from the susceptible genera.
The subject of data set [8] is Staphylococcus, Streptococcus, Neisseria, Escherichia, Proteus (indole-negative), Serratia, Salmonella, Shigella, Pseudomonas, Haemophilus, Vibrio. The note with it: aerobic genera.
Data set [9] deals with wounds infected with Escherichia coli. The settings on record: topically applied, rats.
Data set [10] concerns chronic wounds and ulcers. The settings on record: topically applied; deep partial-thickness burns, chronic leg ulcers and leprosy ulcers.

For the molecule `C[C@@H]1O[C@@H]1P(=O)(O)O` [Fosfomycin calcium monohydrate], the “pH of 0.4% solution” value (0.4% solution) is listed as 8.1-9.6. For the same molecule, the solubility in water entry in data set [1] is “sparingly soluble”. Moreover, in data set [2], the gastric tolerability entry is “less irritating to the stomach”.

Turning to `C[C@@H]1O[C@@H]1P(=O)(O)O` [Fosfomycin disodium], the “pH of 5% solution” value is 9.0-10.5. In addition, the solubility in water entry in data set [1] is on record as “highly soluble”. In addition, in data set [2], the gastric tolerability entry is on record as “irritant to the stomach”.

As to `C[C@@H]1O[C@@H]1P(=O)(O)O.NC(CO)(CO)CO` [Fosfomycin trometamol], the “pH of 5% solution” value is 3.5-5.5. For the same molecule, the solubility in water result in [1] was “highly soluble”. The gastric tolerability result in [2] is reported as “well tolerated”.

On to `C[C@@H]1O[C@@H]1P(=O)(O)O` [fosfomycin, [(2R,3S)-3-methyloxiran-2-yl]phosphonic acid], for which, in data set [3], the “stability in aqueous media” value is “unstable”. Also, the bactericidal activity result in data set [4] is reported as “active”. In addition, in data set [5], the bactericidal activity entry was “less active”. Also, the “concentration in polymorphonuclear leukocytes relative to extracellular fluid” value in [6] was “twice”. Besides, the “toxicity to mammalian cells and organs” value in [2] (intravenous doses of up to 0.5 g/kg/day in human patients) is recorded as “remarkably non-toxic”. Moreover, in data set [2] (patients), the eosinophilia is reported as 0.2%, the “transient rashes (allergy)” value was 0.3 % of cases and the “transiently raised liver enzymes” value is reported as 0.3 % of cases. Further, in [7] (early studies, various antibiotic combinations), the “strains showing synergistic effect” value was 70-100 % of tested strains. For the same molecule, the synergy rates in [7] (subsequent more extensive studies) is 36-74%. In addition, the bactericidal activity result in data set [8] is recorded as “active”.

On to “GM-CSF: monomeric glycoprotein of 127 amino-acid residues, colony-stimulating factor (SEQ ID NO: 2)”, for which, in data set [9], the bacterial counts entry is “reduced bacterial counts” and the wound closure result is listed as “accelerated wound closure”. In [10], the “healing of wounds and ulcers” value is listed as “beneficial”.
